Data: patent US20260027073A1, “USE OF SMALL-MOLECULE COMPOUND HAVING NAPHTHYLAMINE STRUCTURE” (HANGZHOU PHECDAMED CO., LTD., priority 2023, published 2026)

Key:
APP/PS1 mice = test: Cognitive dysfunction in APP/PS1 mice; type: in vivo
Experimental: Male transgenic APP/PS1 mice were purchased from the Model Animal Research Center of Nanjing University, and after being raised to 12 weeks old, the APP/PS1 mice were divided into three groups: normal C57 group (WT), model control group (APP/PS1+Vehicle), and TJ01-013 treatment group (APP/PST+TJ01-013). The mode of administration was by oral gavage, normal group and model control group were administered vehicle by oral gavage, the concentration of TJ01-013 was 30 mg/kg, the gavage volume was 5 ml/kg, the frequency of administration was once a day, and the administration period was 3 months. • (2) Water maze experiment
The water maze device is a circular pool (140 cm in diameter) filled with dissolved titanium dioxide water, keeping the water temperature at 22° C. A platform with a diameter of 12 cm was placed at a fixed position 1 cm below the water surface, and the mice were trained in four quadrants every day for five consecutive days. Each quadrant lasted 60 seconds or until the mice found the platform. […] All parameters were recorded by a video tracking system.
Mouse heart perfusion for brain extraction: APP/PS1 mice and control C57BL/6J mice were anesthetized, and after they became unconscious, the limbs were fixed on a dissection table in a fuming hood, and the abdominal skin was cut with scissors after alcohol disinfection to expose the liver. The diaphragm was quickly cut, and the heart was exposed by turning upward after clamping the xiphoid with hemostatic forceps. Prepared PBS was injected into the left ventricle, noting that the direction was toward the aorta. The peristaltic pump was turned on after opening the right auricle and the blood was drained at a low rate at first. When the heart stopped beating or the fluid pumped at the right auricle was clarified and colorless, the mouse liver can be seen to turn grayish white. The fur was cut open along the midline of the mouse hindbrain with scissors, and the skull was exposed, then forceps were inserted from the criss-cross of the mouse's brain shell, and scissors were used to assist in peeling off the skull, and then the intact whole brain was removed. The fresh mouse whole brain was halved and placed in a 5 mL centrifuge tube, and 4 mL of 4% paraformaldehyde fixative was added to fix for 24 h, sections were made for antigenic repair, incubated for 30 min with dropwise adding of BSA at a concentration of 3-5%, and stained overnight with polyclonal rabbit anti-GFAP antibody (1:100) and mouse anti-β-amyloid protein 1-16 antibody (1:100), and after the sections were washed in PBS three times, the corresponding fluorescent secondary antibody was added dropwise to cover the tissue, and the sections were incubated in dark for 1 h, the slides were washed and stained with DAPI staining solution added dropwisely for 10 min, and the sections were sealed with resin sealer, and finally imaged with Cytation3.
Mouse brain tissue homogenates were prepared according to the brain tissue homogenization method described in the Life Technologies ELISA Technical Guide. […]

[1] = test system: chronic obstructive pulmonary disease model rats; test: Chronic obstructive pulmonary disease (LPS plus passive smoking); type: in vivo, SD rats; conditions: gavage 3 weeks, FIG. 62
Experimental: After 5-week-old male SD rats were adaptively fed for 1 week, they were randomly grouped according to their body weights into five groups, i.e., a normal control group (normal, n=10), a model control group (Control, n=10), a TJ01-013 7.5 mg/kg treatment group (7.5 mg/kg, n=10), a TJ01-013 15 mg/kg treatment group (15 mg/kg, n=10), TJ01-013 30 mg/kg treatment group (30 mg/kg, n=10). The model was replicated using the intra-airway injection of lipopolysaccharide method combined with passive smoking method, which is a recognized model for chronic obstructive pulmonary disease. […] From the second day of modeling, the normal control group and the model control group were treated with vehicle (0.5% CMC-Na) by gavage, and the TJ01-013 treatment group was treated with the corresponding concentration of TJ01-013 in a volume of 10 ml/kg for a total of 3 weeks, and blood was collected from the posterior bulbous vein of the rat after administration, and the blood was centrifuged at 6,000 rpm for 10 min after standing still at room temperature for 30 min, then the upper layer of serum was taken, and the levels of TNFα and CXCL1 in serum were detected by enzyme-linked immunosorbent assay (ELISA).

[2] = test system: Mesenchymal stem cells (MSC) differentiated from normal human pluripotent stem cells (iPSC); test: Senescence of normal human derived mesenchymal stem cells; type: cell-based; conditions: 10 μM
Experimental: Mesenchymal stem cells (MSC) differentiated from normal human pluripotent stem cells (iPSC) were taken for culture, and the experiment was divided into three groups: young cells cultured for 6 generations, labeled as Con-Y; senescent cells cultured for 16 generations, labeled as Con-O; and the administration group, to which 10 μM TJ01-013 was added during the process of culture, similarly cultured up to the 16th generation, and labeled as Con-O+TJ01-013, and after the end of the treatment, all cells were placed under the microscope to observe the morphology of the cells, and the percentage of SA-β-gal+ cells was count. The levels of the DNA damage marker γ-H2AX and the heterochromatin modification H3K9me3 after TJ01-013 treatment were detected by immunofluorescence technique (procedure described previously).

For `O=C(O)C[S+]([O-])c1cc(NS(=O)(=O)c2ccc(Br)cc2)c2ccccc2c1O` (stereo not shown) [I-1], the “time to find the platform (water maze)” value (APP/PS1 mice; 30 mg/kg oral gavage, 3 months, FIG. 42) was “significantly reduced”, the “astrocyte activation in the hippocampal region (GFAP)” value (APP/PS1 mice; FIG. 44) was “significantly reduced” and the “number and size of Aβ plaques” value (APP/PS1 mice; FIG. 44) was “significant decrease”. For the same compound, the “amount of Aβ in the brain tissues (Elisa)” value (APP/PS1 mice; FIG. 45) was “significantly decreased”, the “number of crossing over the platform (water maze)” value (APP/PS1 mice; vs APP/PS1 Vehicle group, FIG. 43) was “significantly larger” and the “serum CXCL1 level” value ([1]; 15 mg/kg and 30 mg/kg) was “reduce”. For the same compound, the “serum TNFα level” value ([1]; 30 mg/kg) was “reduced the serum TNFα level, and the difference was significant”, the “percentage of SA-β-gal-positive cells” value ([2]; 16th generation, vs Con-O, FIG. 51) was “significantly decreased” and the “level of DNA damage marker γ-H2AX” value ([2]; FIG. 52) was “significantly reduced”. The “expression level of heterochromatin-modified H3K9me3” value ([2]; FIG. 53) was “restored its expression level to some extent”.
